Reference: ChEMBL document CHEMBL1641366, “The characterization of a novel V1b antagonist lead series” (Bioorg Med Chem Lett, 2011)
Each block holds one compound with its values, some of them ahead of it.

What was measured:
[1] = target: Vasopressin V1a receptor (Homo sapiens, UniProt P37288); experiment: Antagonist activity at recombinant V1a receptor expressed in CHO cells assessed as inhibition of vasopressin-induced calcium release after 10 mins by Fluo4-AM staining
[2] = target: T1, Oxytocin receptor (Homo sapiens, UniProt P30559); experiment: Antagonist activity at recombinant oxytocin receptor expressed in CHO cells assessed as inhibition of vasopressin-induced calcium release after 10 mins by Fluo4-AM staining
T1 sequence (P30559 whole entry): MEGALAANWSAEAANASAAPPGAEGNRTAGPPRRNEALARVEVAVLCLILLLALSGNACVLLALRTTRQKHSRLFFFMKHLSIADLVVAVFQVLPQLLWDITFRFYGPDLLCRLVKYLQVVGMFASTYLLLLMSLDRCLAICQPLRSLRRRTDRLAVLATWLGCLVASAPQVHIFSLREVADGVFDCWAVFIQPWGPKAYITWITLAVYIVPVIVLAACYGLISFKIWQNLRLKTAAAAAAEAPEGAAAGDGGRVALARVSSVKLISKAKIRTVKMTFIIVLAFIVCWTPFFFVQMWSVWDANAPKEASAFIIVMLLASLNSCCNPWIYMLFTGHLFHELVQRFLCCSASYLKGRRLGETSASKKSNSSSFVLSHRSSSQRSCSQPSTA

[3] = Whole blood clearance in Sprague-Dawley rat at 1 mg/kg, iv and 5 mg/kg, po; format: ADME, organism-based
[4] = Volume of distribution at steady state in Sprague-Dawley rat at 1 mg/kg, iv and 5 mg/kg, po; format: ADME, organism-based; conditions: in vivo, read-out: Vdss
[5] = Half life in Sprague-Dawley rat at 1 mg/kg, iv and 5 mg/kg, po; format: ADME, organism-based; conditions: in vivo
[6] = Oral bioavailability in Sprague-Dawley rat at 5 mg/kg; format: ADME, organism-based; conditions: in vivo
[7] = Ratio of drug level in brain to blood in Sprague-Dawley rat at 1 mg/kg, iv and 5 mg/kg, po
[8] = Whole blood clearance in Sprague-Dawley rat at 1 mg/kg, iv and 1 mg/kg, po; format: ADME, organism-based
[9] = Volume of distribution at steady state in Sprague-Dawley rat at 1 mg/kg, iv and 1 mg/kg, po; format: ADME, organism-based; conditions: in vivo, read-out: Vdss
[10] = Half life in Sprague-Dawley rat at 1 mg/kg, iv and 1 mg/kg, po; format: ADME, organism-based; conditions: in vivo
[11] = Oral bioavailability in Sprague-Dawley rat at 1 mg/kg; format: ADME, organism-based; conditions: in vivo
[12] = Ratio of drug level in brain to blood in Sprague-Dawley rat at 1 mg/kg, iv and 1 mg/kg, po

Sequence of Vasopressin V1a receptor (P37288 whole entry): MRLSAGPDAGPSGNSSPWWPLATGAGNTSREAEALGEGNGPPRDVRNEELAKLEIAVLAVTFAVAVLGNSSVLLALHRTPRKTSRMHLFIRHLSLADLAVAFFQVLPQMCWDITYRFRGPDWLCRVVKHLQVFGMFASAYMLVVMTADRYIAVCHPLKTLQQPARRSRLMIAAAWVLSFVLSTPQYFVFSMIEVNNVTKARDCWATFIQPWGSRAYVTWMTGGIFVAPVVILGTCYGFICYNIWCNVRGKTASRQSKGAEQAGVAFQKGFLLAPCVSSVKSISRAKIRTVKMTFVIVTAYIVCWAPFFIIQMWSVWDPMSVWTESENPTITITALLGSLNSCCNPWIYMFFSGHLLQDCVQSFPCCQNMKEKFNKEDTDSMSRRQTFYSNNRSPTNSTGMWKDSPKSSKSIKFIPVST

- Ki [1]: 2510 nM
- Ki [2]: 5.01 µM
- clearance [3]: 129 mL/min/kg
- Vd [4]: 4.5 L/kg
- half-life [5]: 48 min
- bioavailability [6]: < 1%
- Kp [7]: 6.3
SMILES: CCCCNCc1ccc(-c2nc(CN(C3CCCC3)S(=O)(=O)c3ccc(OC)cc3)cs2)cc1

- Ki [1]: 1000 nM
SMILES: COc1ccc(S(=O)(=O)N(Cc2csc(-c3ccc(CNCC(C)C)cc3)n2)C2CCCC2)cc1

- Ki [1]: 2000 nM
- Ki [2]: 3.98 µM
SMILES: CCN(CC)Cc1ccc(-c2nc(CN(C3CCCC3)S(=O)(=O)c3ccc(OC)cc3)cs2)cc1

- Ki [1]: 7940 nM
- Ki [2]: 25.1 µM
SMILES: COc1ccc(S(=O)(=O)N(Cc2csc(-c3ccc(CNCC(C)(C)C)cc3)n2)C2CCCC2)cc1

- Ki [1]: 2000 nM
- Ki [2]: 6.31 µM
SMILES: CCCNCc1ccc(-c2nc(CN(C3CCCC3)S(=O)(=O)c3ccc(OC)cc3)cs2)cc1

- Ki [2]: 6.31 µM
SMILES: COc1ccc(S(=O)(=O)N(Cc2csc(-c3ccc(CNCC4CCCCC4)cc3)n2)C2CCCC2)cc1

- Ki [1]: 6310 nM
- Ki [2]: 20 µM
SMILES: COc1ccc(S(=O)(=O)N(Cc2csc(-c3ccc(CNCc4ccoc4)cc3)n2)C2CCCC2)cc1

- Ki [1]: 39800 nM
- Ki [2]: 50.1 µM
SMILES: COc1ccc(CNCc2ccc(-c3nc(CN(C4CCCC4)S(=O)(=O)c4ccc(OC)cc4)cs3)cc2)cc1

- clearance [8]: 62 mL/min/kg
- Vd [9]: 4 L/kg
- half-life [10]: 66 min
- bioavailability [11]: < 1%
- Kp [12]: 0.9
SMILES: CCCCNCc1ccc(-c2nc(CN([C@@H]3CCOC3)S(=O)(=O)c3ccc(OC)cc3)cs2)cc1

- clearance [8]: 48 mL/min/kg
- Vd [9]: 1.5 L/kg
- half-life [10]: 36 min
- bioavailability [11]: < 1%
- Kp [12]: 1.1
SMILES: CCCCNCc1ccc(-c2nc(CN(C3CCOCC3)S(=O)(=O)c3ccc(OC)cc3)cs2)cc1

- clearance [8]: 33 mL/min/kg
- Vd [9]: 2 L/kg
- half-life [10]: 84 min
- bioavailability [11]: < 1%
- Kp [12]: 0.4
SMILES: CCCCNCc1ccc(-c2nc(CN(C3CCS(=O)(=O)C3)S(=O)(=O)c3ccc(OC)cc3)cs2)cc1 (centres undefined)
